Measured values published in patent US20240246942A1, “KINASE INHIBITORS FOR THE TREATMENT OF NEURODEGENERATIVE DISEASES” (priority 2020, published 2024).
Where two headings read alike, the source gives them in different places.

Legend:
JNK1 = JNK1 (Homo sapiens, UniProt P45983); assay: JNK1 homogeneous time-resolved fluorescence enzyme inhibition assay; assay type: biochemical; conditions: for R: ratio of IC50 values of JNK1 over JNK3: isoform selectivity against JNK1
Protocol: (§1) A 10-point titration of all compounds was carried out in 3-fold dilutions from 10 μM to 0.5 nM.

p38α = p38α (Homo sapiens, UniProt Q16539); assay: p38 enzyme inhibition assay; conditions: mean of ≥2 experiments; read-out: Biochemical inhibition IC50 p38α
JNK3α1 = JNK3α1 (Homo sapiens, UniProt P53779); assay type: biochemical
Protocol: as §1

[1] = Microsomal stability, human; assay type: in vitro ADME; conditions: human microsomes
CYP3A4 = CYP3A4 (Homo sapiens, UniProt P08684); assay: P450 cocktail inhibition assay, CYP3A4; assay type: in vitro ADME; conditions: at 10 μM
Protocol: (§2) P450s inhibition for four major isoforms are evaluated using a cocktail inhibition assay where the metabolism of specific marker substrate (CYP1A2 phenaceten […] to acetaminophen); CYP2C9, tolbutamide hydroxylation to hydrocytolbutamide; CYP2D6, bufuralol hydroxylation to […]; and CYP3A4, midazolam hydroxylation to 1′-Hydroxymidazolam) in the presence or absence of 10 TM probe compound is evaluated. The concentration of each marker substrate is approximately its Km. […] Specific inhibitors for each isoform are included in each run to validate the system.

SHSY5Y cells = assay: MTT cytotoxicity assay; assay type: cell-based; set-up: dose or concentration left out as unconfirmed; conditions: 48 hrs, average of ≥2 experiments;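 also: compounds tested at 10 µM final concentration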
Protocol: A day before the assay, cells were plated at 50,000/well in 96 well plates in the culture medium. […] After the incubation, cells were subjected to MTT assay using Vybrant MTT Cell Proliferation kit as directed by the vendor (Life Technologies).

CYP2C9 = CYP2C9 (Homo sapiens, UniProt P11712); assay: P450 cocktail inhibition assay, CYP2C9; assay type: in vitro ADME; conditions: at 10 μM
Protocol: as §2

[2] = Microsomal stability, mouse; assay type: in vitro ADME; conditions: mouse microsomes
CYP2D6 = CYP2D6 (Homo sapiens, UniProt P10635); assay: P450 cocktail inhibition assay, CYP2D6; assay type: in vitro ADME; conditions: at 10 μM
Protocol: as §2

CYP1A2 = target: T1, CYP1A2 (Homo sapiens, UniProt P05177); assay: P450 cocktail inhibition assay, CYP1A2; assay type: in vitro ADME; conditions: at 10 μM
T1 sequence (P05177 1-516): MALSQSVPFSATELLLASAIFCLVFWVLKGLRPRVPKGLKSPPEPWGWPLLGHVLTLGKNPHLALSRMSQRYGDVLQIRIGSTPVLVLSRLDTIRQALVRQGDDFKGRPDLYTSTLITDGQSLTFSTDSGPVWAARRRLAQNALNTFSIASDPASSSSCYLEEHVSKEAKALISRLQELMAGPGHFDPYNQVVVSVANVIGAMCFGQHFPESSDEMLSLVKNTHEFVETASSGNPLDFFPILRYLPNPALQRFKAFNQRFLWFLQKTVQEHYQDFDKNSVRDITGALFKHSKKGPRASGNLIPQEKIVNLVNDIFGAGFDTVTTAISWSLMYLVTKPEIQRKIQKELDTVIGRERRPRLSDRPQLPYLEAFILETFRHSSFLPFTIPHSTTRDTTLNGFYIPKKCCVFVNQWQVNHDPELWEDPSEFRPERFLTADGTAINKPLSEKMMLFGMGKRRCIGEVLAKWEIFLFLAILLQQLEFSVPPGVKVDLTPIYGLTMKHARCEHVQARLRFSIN
Protocol: as §2

JNK2 = JNK2 (Homo sapiens, UniProt P45984); assay: JNK2 homogeneous time-resolved fluorescence enzyme inhibition assay; assay type: biochemical; conditions: for R: ratio of IC50 values of JNK2 over JNK3: isoform selectivity against JNK2; for IC50: mean of ≥2 experiments, read-out: Biochemical inhibition IC50 JNK2
Protocol: as §1

[3] = mean of ≥2 experiments, read-out: Biochemical inhibition IC50 JNK1
[4] = mean of ≥2 experiments, read-out: Biochemical inhibition IC50 JNK3

Sequence of p38α (Q16539 whole entry): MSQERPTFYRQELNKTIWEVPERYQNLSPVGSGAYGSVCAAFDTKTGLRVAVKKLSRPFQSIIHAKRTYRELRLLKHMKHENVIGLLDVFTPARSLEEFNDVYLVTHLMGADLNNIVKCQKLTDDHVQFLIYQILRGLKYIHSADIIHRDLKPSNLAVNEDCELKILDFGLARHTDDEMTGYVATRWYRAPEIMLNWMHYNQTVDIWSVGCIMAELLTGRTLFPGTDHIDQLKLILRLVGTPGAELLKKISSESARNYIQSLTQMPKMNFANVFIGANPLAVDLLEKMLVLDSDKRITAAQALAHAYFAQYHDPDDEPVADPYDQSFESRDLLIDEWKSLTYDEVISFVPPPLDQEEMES
Sequence of CYP3A4 (P08684 whole entry, canonical isoform): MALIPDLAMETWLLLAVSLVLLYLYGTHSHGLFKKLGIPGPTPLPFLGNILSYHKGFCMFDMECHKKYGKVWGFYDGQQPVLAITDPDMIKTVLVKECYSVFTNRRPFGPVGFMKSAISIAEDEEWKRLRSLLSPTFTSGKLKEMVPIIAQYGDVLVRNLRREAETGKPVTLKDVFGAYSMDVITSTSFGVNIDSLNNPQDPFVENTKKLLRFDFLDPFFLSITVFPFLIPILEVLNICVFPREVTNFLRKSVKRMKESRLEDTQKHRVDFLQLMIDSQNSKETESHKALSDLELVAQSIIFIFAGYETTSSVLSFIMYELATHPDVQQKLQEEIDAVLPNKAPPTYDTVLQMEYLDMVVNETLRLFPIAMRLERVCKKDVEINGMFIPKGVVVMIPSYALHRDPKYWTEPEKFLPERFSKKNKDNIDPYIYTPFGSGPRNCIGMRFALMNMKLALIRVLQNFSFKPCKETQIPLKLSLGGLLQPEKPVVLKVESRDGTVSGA
Sequence of CYP2C9 (P11712 whole entry): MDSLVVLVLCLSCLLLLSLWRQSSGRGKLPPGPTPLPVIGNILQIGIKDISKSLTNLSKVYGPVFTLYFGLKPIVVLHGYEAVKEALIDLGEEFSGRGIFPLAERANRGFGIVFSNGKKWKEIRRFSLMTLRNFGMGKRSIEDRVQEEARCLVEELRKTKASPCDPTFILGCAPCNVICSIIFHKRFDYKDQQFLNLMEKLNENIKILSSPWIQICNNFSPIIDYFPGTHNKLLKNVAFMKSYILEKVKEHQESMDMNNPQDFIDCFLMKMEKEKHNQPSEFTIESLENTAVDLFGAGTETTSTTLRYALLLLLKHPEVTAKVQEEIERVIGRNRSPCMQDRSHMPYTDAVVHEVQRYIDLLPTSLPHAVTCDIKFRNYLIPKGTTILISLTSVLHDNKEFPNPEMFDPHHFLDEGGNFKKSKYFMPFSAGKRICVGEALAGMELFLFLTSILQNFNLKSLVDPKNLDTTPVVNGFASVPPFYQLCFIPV
Sequence of JNK2 (P45984 whole entry, canonical isoform): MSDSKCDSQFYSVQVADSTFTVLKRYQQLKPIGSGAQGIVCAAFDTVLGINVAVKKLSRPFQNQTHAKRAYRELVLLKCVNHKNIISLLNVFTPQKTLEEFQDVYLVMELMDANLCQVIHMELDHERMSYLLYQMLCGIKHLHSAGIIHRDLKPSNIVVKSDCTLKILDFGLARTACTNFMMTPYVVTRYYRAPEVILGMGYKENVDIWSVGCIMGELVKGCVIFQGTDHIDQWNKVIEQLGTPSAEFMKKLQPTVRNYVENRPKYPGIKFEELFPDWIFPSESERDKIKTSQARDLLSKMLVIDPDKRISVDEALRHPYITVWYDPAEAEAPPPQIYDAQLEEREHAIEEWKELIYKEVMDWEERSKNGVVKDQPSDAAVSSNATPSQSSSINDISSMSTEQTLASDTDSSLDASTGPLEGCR
Sequence of JNK3α1 (P53779 1-422 isoform P53779-2): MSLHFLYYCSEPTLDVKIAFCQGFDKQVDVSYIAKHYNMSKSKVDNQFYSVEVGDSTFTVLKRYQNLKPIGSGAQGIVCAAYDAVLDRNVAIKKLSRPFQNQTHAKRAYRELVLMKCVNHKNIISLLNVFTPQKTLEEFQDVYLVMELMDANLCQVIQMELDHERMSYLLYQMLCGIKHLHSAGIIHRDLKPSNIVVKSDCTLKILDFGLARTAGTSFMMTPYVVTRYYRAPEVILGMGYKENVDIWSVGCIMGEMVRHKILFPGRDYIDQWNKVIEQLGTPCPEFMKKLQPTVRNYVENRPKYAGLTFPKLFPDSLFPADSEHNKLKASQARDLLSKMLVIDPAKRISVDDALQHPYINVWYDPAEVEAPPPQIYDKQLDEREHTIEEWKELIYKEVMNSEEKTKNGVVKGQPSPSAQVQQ
Sequence of JNK1 (P45983 whole entry, canonical isoform): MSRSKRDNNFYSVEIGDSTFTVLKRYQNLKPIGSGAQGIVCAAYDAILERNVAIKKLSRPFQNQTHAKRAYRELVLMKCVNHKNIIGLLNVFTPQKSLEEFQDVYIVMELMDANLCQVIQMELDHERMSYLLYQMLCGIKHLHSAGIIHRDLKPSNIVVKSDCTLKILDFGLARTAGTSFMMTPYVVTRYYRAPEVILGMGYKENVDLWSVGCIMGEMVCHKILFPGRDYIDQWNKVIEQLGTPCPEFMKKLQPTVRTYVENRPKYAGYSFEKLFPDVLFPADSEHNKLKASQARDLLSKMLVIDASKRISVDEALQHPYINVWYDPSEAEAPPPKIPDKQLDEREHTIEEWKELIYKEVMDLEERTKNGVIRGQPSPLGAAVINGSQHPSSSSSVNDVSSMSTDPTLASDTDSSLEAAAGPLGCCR
Sequence of CYP2D6 (P10635 whole entry): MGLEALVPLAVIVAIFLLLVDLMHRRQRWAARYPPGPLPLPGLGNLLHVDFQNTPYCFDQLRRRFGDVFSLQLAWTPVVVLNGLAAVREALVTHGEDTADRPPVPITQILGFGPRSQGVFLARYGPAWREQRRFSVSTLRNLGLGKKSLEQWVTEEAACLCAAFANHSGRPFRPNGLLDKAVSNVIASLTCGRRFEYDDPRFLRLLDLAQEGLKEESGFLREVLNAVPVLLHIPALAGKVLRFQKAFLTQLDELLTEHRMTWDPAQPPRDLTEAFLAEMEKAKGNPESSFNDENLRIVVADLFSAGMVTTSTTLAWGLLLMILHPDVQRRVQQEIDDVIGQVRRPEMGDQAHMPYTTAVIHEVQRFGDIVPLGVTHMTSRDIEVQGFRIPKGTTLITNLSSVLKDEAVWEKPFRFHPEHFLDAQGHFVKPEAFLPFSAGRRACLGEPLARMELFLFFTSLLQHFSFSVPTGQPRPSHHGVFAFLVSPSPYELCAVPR

Row | Structure (SMILES) | R: ratio of IC50 values of JNK1 over JNK3 (JNK1) | IC50 (JNK1; [3]) [nM] | IC50 (p38α) [nM] | IC50 (JNK3α1; [4]) [nM] | other results
1 | CN1CCC(CNC(=O)c2cc(-n3cc(NC(=O)Nc4ccccc4Cl)cn3)cs2)CC1 [Compound 19, 4-(4-(3-(2-chlorophenyl)ureido)-1H-pyrazol-1-yl)-N-((1-methylpiperidin-4-yl)methyl)thiophene-2-carboxamide] | 41 | 5800 | > 20000 | 142 | –
2 | O=C(Nc1cnn(-c2csc(C(=O)N[C@@H]3CCNC3)c2)c1)Nc1ccccc1Cl [Compound 9, (R)-4-(4-(3-(2-chlorophenyl)ureido)-1H-pyrazol-1-yl)-N-(pyrrolidin-3-yl)thiophene-2-carboxamide] | – | 5900 | – | 132 | –
3 | CN1CC[C@H](CNC(=O)c2cc(-n3cc(NC(=O)Nc4ccccc4Cl)cn3)cs2)C1 [Compound 21, (R)-4-(4-(3-(2-chlorophenyl)ureido)-1H-pyrazol-1-yl)-N-((1-methylpyrrolidin-3-yl)methyl)thiophene-2-carboxamide] | 46 | 10300 | – | 222 | –
4 | O=C(Nc1cnn(-c2csc(C(=O)NC[C@H]3CCOC3)c2)c1)Nc1ccccc1Cl [Compound 22, (R)-4-(4-(3-(2-chlorophenyl)ureido)-1H-pyrazol-1-yl)-N-((tetrahydrofuran-3-yl)methyl)thiophene-2-carboxamide] | 31 | 2200 | – | 71 | –
5 | O=C(Nc1cnn(-c2ccc(C(=O)NC3CNC3)s2)c1)Nc1ccccc1Cl [Compound 4, N-(azetidin-3-yl)-5-(4-(3-(2-chlorophenyl)ureido)-1H-pyrazol-1-yl)thiophene-2-carboxamide] | – | – | – | 800 | –
6 | CN1CCC(NC(=O)c2cc(-n3cc(NC(=O)Nc4ccccc4Cl)cn3)cs2)CC1 [Compound 14, 4-(4-(3-(2-chlorophenyl)ureido)-1H-pyrazol-1-yl)-N-(1-methylpiperidin-4-yl)thiophene-2-carboxamide] | – | 4200 | > 20000 | 84 | Mic. stability t1/2 Human [1]: 92 min; CYP-450 % inh. 3A4 (CYP3A4): −34%; MTT cell viability (SHSY5Y cells): 89%; CYP-450 % inh. 2C9 (CYP2C9): −19%; Mic. stability t1/2 Mouse [2]: 15 min; CYP-450 % inh. 2D6 (CYP2D6): −5%; CYP-450 % inh. 1A2 (CYP1A2): −6%; R: ratio of IC50 values of JNK2 over JNK3 (JNK2): 33; IC50 (JNK2): 2770 nM
7 | O=C(Nc1cnn(-c2csc(C(=O)N[C@@H]3CCOC3)c2)c1)Nc1ccccc1Cl [Compound 16, (R)-4-(4-(3-(2-chlorophenyl)ureido)-1H-pyrazol-1-yl)-N-(tetrahydrofuran-3-yl)thiophene-2-carboxamide] | 188 | 1500 | – | – | Mic. stability t1/2 Human [1]: 33 min; CYP-450 % inh. 3A4 (CYP3A4): −20%; MTT cell viability (SHSY5Y cells): 112%; CYP-450 % inh. 2C9 (CYP2C9): 38%; Mic. stability t1/2 Mouse [2]: 13 min; CYP-450 % inh. 2D6 (CYP2D6): 1%; CYP-450 % inh. 1A2 (CYP1A2): 17%; IC50 (JNK3α1; read-out: JNK3 inhibitory activity IC50): 8 nM; isoform selectivity against JNK2 vs JNK3 (JNK2): > 250 folds; R: ratio of IC50 values of JNK2 over JNK3 (JNK2): 253; IC50 (JNK2): 2020 nM
8 | O=C(Nc1cnn(-c2cc(C(=O)NC3CNC3)cs2)c1)Nc1ccccc1Cl [Compound 5, N-(azetidin-3-yl)-5-(4-(3-(2-chlorophenyl)ureido)-1H-pyrazol-1-yl)thiophene-3-carboxamide] | – | – | – | 200 | –
9 | O=C(Nc1cnn(-c2csc(C(=O)NCC3CCNCC3)c2)c1)Nc1ccccc1Cl [Compound 20, 4-(4-(3-(2-chlorophenyl)ureido)-1H-pyrazol-1-yl)-N-(piperidin-4-ylmethyl)thiophene-2-carboxamide] | – | 6600 | > 20000 | – | –
10 | O=C(Nc1cnn(-c2csc(C(=O)NC3CCOCC3)c2)c1)Nc1ccccc1Cl [Compound 15, 4-(4-(3-(2-chlorophenyl)ureido)-1H-pyrazol-1-yl)-N-(tetrahydro-2H-pyran-4-yl)thiophene-2-carboxamide] | 38 | 1900 | > 20000 | 50 | Mic. stability t1/2 Human [1]: 32 min; CYP-450 % inh. 3A4 (CYP3A4): −35%; MTT cell viability (SHSY5Y cells): 97%; CYP-450 % inh. 2C9 (CYP2C9): 7%; Mic. stability t1/2 Mouse [2]: 16 min; CYP-450 % inh. 2D6 (CYP2D6): 0%; CYP-450 % inh. 1A2 (CYP1A2): 32%; R: ratio of IC50 values of JNK2 over JNK3 (JNK2): 21; IC50 (JNK2): 1050 nM
11 | CC1(NC(=O)c2cc(-n3cc(NC(=O)Nc4ccccc4Cl)cn3)cs2)COC1 [Compound 18, 4-(4-(3-(2-chlorophenyl)ureido)-1H-pyrazol-1-yl)-N-(3-methyloxetan-3-yl)thiophene-2-carboxamide] | 73 | 3300 | > 20000 | 45 | –
12 | CN1CC[C@H](NC(=O)c2cc(-n3cc(NC(=O)Nc4ccccc4Cl)cn3)cs2)C1 [Compound 12, (S)-4-(4-(3-(2-chlorophenyl)ureido)-1H-pyrazol-1-yl)-N-(1-methylpyrrolidin-3-yl)thiophene-2-carboxamide] | 56 | 2200 | – | 39 | Mic. stability t1/2 Human [1]: 54 min; CYP-450 % inh. 3A4 (CYP3A4): −18%; MTT cell viability (SHSY5Y cells): 94%; CYP-450 % inh. 2C9 (CYP2C9): −9%; Mic. stability t1/2 Mouse [2]: 20 min; CYP-450 % inh. 2D6 (CYP2D6): 20%; CYP-450 % inh. 1A2 (CYP1A2): −1%; isoform selectivity against JNK2 vs JNK3 (JNK2): around 40 folds; R: ratio of IC50 values of JNK2 over JNK3 (JNK2): 39; IC50 (JNK2): 1510 nM
13 | [2H]C([2H])([2H])N1CC[C@@H](NC(=O)c2cc(-n3cc(NC(=O)Nc4ccccc4Cl)cn3)cs2)C1 [Compound 11, (R)-4-(4-(3-(2-chlorophenyl)ureido)-1H-pyrazol-1-yl)-N-(1-(methyl-d3)pyrrolidin-3-yl)thiophene-2-carboxamide] | 61 | 5100 | – | 83 | –
14 | CC(C)N1CC[C@H](NC(=O)c2cc(-n3cc(NC(=O)Nc4ccccc4Cl)cn3)cs2)C1 [Compound 13, (S)-4-(4-(3-(2-chlorophenyl)ureido)-1H-pyrazol-1-yl)-N-(1-isopropylpyrrolidin-3-yl)thiophene-2-carboxamide] | 60 | 720 | – | 12 | –
15 | CNC(=O)c1cc(-n2cc(NC(=O)Nc3ccccc3Cl)cn2)cs1 [Compound 7, 4-(4-(3-(2-chlorophenyl)ureido)-1H-pyrazol-1-yl)-N-methylthiophene-2-carboxamide] | – | – | > 20000 | – | IC50 (JNK1): > 20000 nM
16 | O=C(Nc1cnn(-c2nc(C(=O)NC3CNC3)cs2)c1)Nc1ccccc1Cl [Compound 3, N-(azetidin-3-yl)-2-(4-(3-(2-chlorophenyl)ureido)-1H-pyrazol-1-yl)thiazole-4-carboxamide] | – | – | – | – | inhibition of JNK1 (JNK1; in words, FIG. 3): no inhibition; inhibition of JNK3 (JNK3α1; in words, FIG. 3): no inhibition
17 | CN1CCC[C@H]1CNC(=O)c1cc(-n2cc(NC(=O)Nc3ccccc3Cl)cn2)cs1 [Compound 23, (S)-4-(4-(3-(2-chlorophenyl)ureido)-1H-pyrazol-1-yl)-N-((1-methylpyrrolidin-2-yl)methyl)thiophene-2-carboxamide] | 107 | 9100 | – | 85 | –
18 | O=C(Nc1cnn(-c2csc(C(=O)NC3CNC3)c2)c1)Nc1ccccc1Cl [Compound 6, N-(azetidin-3-yl)-4-(4-(3-(2-chlorophenyl)ureido)-1H-pyrazol-1-yl)thiophene-2-carboxamide] | 72 | 3600 | > 20000 | 50 | isoform selectivity against JNK1 (JNK1; JNK3 over JNK1, text): 72 fold
19 | CN1CC[C@@H](NC(=O)c2cc(-n3cc(NC(=O)Nc4ccccc4Cl)cn3)cs2)C1 [Compound 10, (R)-4-(4-(3-(2-chlorophenyl)ureido)-1H-pyrazol-1-yl)-N-(1-methylpyrrolidin-3-yl)thiophene-2-carboxamide] | 60 | 5100 | – | 85 | –
